Source: patent US20100041089A1, “IMPROVED METHOD FOR DETECTING CHEMICAL […]” (priority 2006, published 2010)

System: yeast genes (expressed mRNA)
Assay: DNA chip measurement of expressed mRNA of yeast genes after culture with a toxic chemical substance
Type: cell-based, Saccharomyces cerevisiae S288C
Experimental: Yeast (Saccharomyces cerevisiae S288C (a SUC2mal mel gap2 CUP1)) were cultured at 25° C. on YPD medium (yeast extract 1%, polypeptone 2%, glucose 2%). One of toxic chemical substances was added to the cell at logarithmic growth phase, and the cell was further cultured for two hours. Cell was cultured without any chemical substance in the same condition, and was used as a control. Concentrations of the chemical substances were defined to inhibit the growth of the yeast but not lead to death.
After the completion of cultivation, the culture was centrifuged to collect the cells. To the cells, sodium acetate buffer (50 mM sodium acetate, 10 mM EDTA, 1% SDS) was added, and the mixture was shaken at 65° C. for five minutes, followed by returning to room temperature, and obtaining the supernatant, which procedure was repeated two times. To the supernatant, ½ amount of a solution of phenol/chloroform (1:1) was added, and the mixture was centrifuged to give a supernatant, an equal amount of chloroform was added, and the mixture was centrifuged to give a supernatant. To the supernatant, an equal amount of isopropanol containing 0.3 M sodium acetate was added, and the mixture was allowed to stand at room temperature for 30 minutes, after which the mixture was centrifuged to give sediment of the whole RNAs. Seventy % ethanol was added to the sediment, and the mixture was again centrifuged to give sediment, which was then dried and dissolved in water. mRNA was isolated from the whole RNAs as followings. In view of the fact that a poly A chain is attached to the 3′ terminus of mRNA, a polynucleotide having a poly T structure which was immobilized on the surface of latex beads was used to trap the mRNA, and then the mRNA was washed and eluted with spine column (Oligotex-dT30<Super>mRNA Purification Kit, Takara). Reverse transcription of the mRNA was conducted with a reverse transcriptase (Super Script II Reverse Transcriptase; catalogue No. 18064-014, GibcoBRL) using fluorescence-labeled nucleotides to give cDNAs that were introduced with Cy3-dUTP or Cy5-dUTP during the reverse transcription.
The labeled cDNAs were dissolved in TE buffer (10 mM Tris-HCl/1 mM EDTA, pH 8.0), and the solution was dropped on the DNA chip containing the whole genes of yeast (DNA Chip Research Inc. Japan) so that the cDNAs were hybridized on the DNA chip at 65° C. for over 12 hours. The fluoresces intensity of the DNA chip was read with a scanner, and the ratio relative to the fluorescence intensity resulting from the absence of chemical substance was estimated as the following, which is shown in Tables 1 to 9.
In the Tables, “Intensity” indicated in the rightmost column is a value of the level of expressed mRNA of each gene in control cells as divided by the average level of the expressions of the whole genes. A gene of which mRNA level is lower in control, and is higher in cases of addition of chemical substance, is especially useful in the detection of toxic substances.
Here, when a ratio of an amount of mRNA expressed in the presence of the chemical substance to an amount of mRNA expressed in the absence of the chemical substance is two or more, then it is considered significant.

`Oc1cc(Cl)c(Cl)cc1Cl` [(6), 2,4,5-Trichlorophenol] was tested, and the “The level of expressed mRNA in the presence of chemical substance/The level of expressed mRNA in the absence of chemical substance” value (yeast gene YAL053W, cultured two hours with substance) was 1.1, the “The level of expressed mRNA in the presence of chemical substance/The level of expressed mRNA in the absence of chemical substance” value (yeast gene YAR028W, cultured two hours with substance) was 3.3 and the “The level of expressed mRNA in the presence of chemical substance/The level of expressed mRNA in the absence of chemical substance” value (yeast gene YBL043W) was 26.9. The “The level of expressed mRNA in the presence of chemical substance/The level of expressed mRNA in the absence of chemical substance” value (yeast gene YBL048W, cultured two hours with substance) was 2.0, the “The level of expressed mRNA in the presence of chemical substance/The level of expressed mRNA in the absence of chemical substance” value (yeast gene YBL107C, cultured two hours with substance) was 1.1 and the “The level of expressed mRNA in the presence of chemical substance/The level of expressed mRNA in the absence of chemical substance” value (yeast gene YBR026C) was 0.1. The “The level of expressed mRNA in the presence of chemical substance/The level of expressed mRNA in the absence of chemical substance” value (yeast gene YBR072W (stress protein genes)) was 32.2, the “The level of expressed mRNA in the presence of chemical substance/The level of expressed mRNA in the absence of chemical substance” value (yeast gene YBR145W) was 11.5 and the “The level of expressed mRNA in the presence of chemical substance/The level of expressed mRNA in the absence of chemical substance” value (yeast gene YBR145W (detoxification protein gene)) was 11.5. The “The level of expressed mRNA in the presence of chemical substance/The level of expressed mRNA in the absence of chemical substance” value (yeast gene YBR145W, cultured for two hours with substance) was 11.5, the “The level of expressed mRNA in the presence of chemical substance/The level of expressed mRNA in the absence of chemical substance” value (yeast gene YBR169C (stress protein genes)) was 4.9 and the “The level of expressed mRNA in the presence of chemical substance/The level of expressed mRNA in the absence of chemical substance” value (yeast gene YDL072C, cultured two hours with substance) was 1.5. For the same molecule, the “The level of expressed mRNA in the presence of chemical substance/The level of expressed mRNA in the absence of chemical substance” value (yeast gene YDL204W, cultured two hours with substance) was 5.6, the “The level of expressed mRNA in the presence of chemical substance/The level of expressed mRNA in the absence of chemical substance” value (yeast gene YDL206W (transport facilitation protein genes)) was 5.7 and the “The level of expressed mRNA in the presence of chemical substance/The level of expressed mRNA in the absence of chemical substance” value (yeast gene YDL222C, cultured two hours with substance) was 1.4. The “The level of expressed mRNA in the presence of chemical substance/The level of expressed mRNA in the absence of chemical substance” value (yeast gene YDR031W, cultured two hours with substance) was 3.6, the “The level of expressed mRNA in the presence of chemical substance/The level of expressed mRNA in the absence of chemical substance” value (yeast gene YDR033W (stress protein genes)) was 6.7 and the “The level of expressed mRNA in the presence of chemical substance/The level of expressed mRNA in the absence of chemical substance” value (yeast gene YDR315C) was 9.4. The “The level of expressed mRNA in the presence of chemical substance/The level of expressed mRNA in the absence of chemical substance” value (yeast gene YDR330W, cultured two hours with substance) was 2.3, the “The level of expressed mRNA in the presence of chemical substance/The level of expressed mRNA in the absence of chemical substance” value (yeast gene YDR391C, cultured two hours with substance) was 2.8 and the “The level of expressed mRNA in the presence of chemical substance/The level of expressed mRNA in the absence of chemical substance” value (yeast gene YDR406W (transport facilitation protein gene)) was 5.9. The “The level of expressed mRNA in the presence of chemical substance/The level of expressed mRNA in the absence of chemical substance” value (yeast gene YDR411C, cultured two hours with substance) was 0.8, the “The level of expressed mRNA in the presence of chemical substance/The level of expressed mRNA in the absence of chemical substance” value (yeast gene YDR511W, cultured two hours with substance) was 2.0 and the “The level of expressed mRNA in the presence of chemical substance/The level of expressed mRNA in the absence of chemical substance” value (yeast gene YDR545W, cultured two hours with substance) was 1.0. For the same molecule, the “The level of expressed mRNA in the presence of chemical substance/The level of expressed mRNA in the absence of chemical substance” value (yeast gene YEL001C, cultured two hours with substance) was 1.3, the “The level of expressed mRNA in the presence of chemical substance/The level of expressed mRNA in the absence of chemical substance” value (yeast gene YER004W, cultured two hours with substance) was 1.2 and the “The level of expressed mRNA in the presence of chemical substance/The level of expressed mRNA in the absence of chemical substance” value (yeast gene YER035W, cultured two hours with substance) was 0.9. For the same molecule, the “The level of expressed mRNA in the presence of chemical substance/The level of expressed mRNA in the absence of chemical substance” value (yeast gene YER079W, cultured two hours with substance) was 1.5, the “The level of expressed mRNA in the presence of chemical substance/The level of expressed mRNA in the absence of chemical substance” value (yeast gene YER106W, cultured two hours with substance) was 1.1 and the “The level of expressed mRNA in the presence of chemical substance/The level of expressed mRNA in the absence of chemical substance” value (yeast gene YER158C, cultured two hours with substance) was 0.7. For the same molecule, the “The level of expressed mRNA in the presence of chemical substance/The level of expressed mRNA in the absence of chemical substance” value (yeast gene YER163C, cultured two hours with substance) was 2.0, the “The level of expressed mRNA in the presence of chemical substance/The level of expressed mRNA in the absence of chemical substance” value (yeast gene YER175C, cultured two hours with substance) was 0.8 and the “The level of expressed mRNA in the presence of chemical substance/The level of expressed mRNA in the absence of chemical substance” value (yeast gene YFL006W, cultured two hours with substance) was 1.2. For the same molecule, the “The level of expressed mRNA in the presence of chemical substance/The level of expressed mRNA in the absence of chemical substance” value (yeast gene YFL010C, cultured two hours with substance) was 1.9, the “The level of expressed mRNA in the presence of chemical substance/The level of expressed mRNA in the absence of chemical substance” value (yeast gene YFL014W, DNA repair protein genes, cultured two hours with substance) was 9.3 and the “The level of expressed mRNA in the presence of chemical substance/The level of expressed mRNA in the absence of chemical substance” value (yeast gene YFL024C, cultured two hours with substance) was 2.0.
